The text below walks through data of ChEMBL document CHEMBL3044555, “Metabolism of thymol and trans-anethole in larvae of Spodoptera litura and Trichoplusia ni (Lepidoptera: Noctuidae)” (J Agric Food Chem, 2004).

Series [1] in a line: Drug excretion in 80 last instar Trichoplusia ni (cabbage looper) larvae feces assessed as side chain methyl group hydroxylated compound on at 0.1 % fwt, po by TLC analysis. The class given is ADME, organism-based. As to conditions: in vivo; call rule not given here.
Series [2] can be described thus: Drug excretion in 80 last instar Spodoptera litura larvae feces assessed as side chain methyl group hydroxylated compound on at 0.1 % fwt, po by TLC analysis. It counts as ADME, organism-based. To be noted: in vivo.
Series [3] in a line: Drug excretion in 80 last instar Trichoplusia ni (cabbage looper) larvae feces assessed as side chain methyl group hydroxylated compound on at 0.1 % fwt, po by 1H/13C NMR analysis. It counts as ADME, organism-based. As to conditions: in vivo.
Series [4] can be described thus: Drug excretion in 80 last instar Trichoplusia ni (cabbage looper) larvae feces assessed as unchanged parent compound at 0.1 % fwt, po measured after 3 days by 1H/13C NMR analysis. The class given is ADME, organism-based. To be noted: in vivo, 72 h.
Series [5] in a line: Drug excretion in 80 last instar Trichoplusia ni (cabbage looper) larvae feces assessed as thymol 3-O-beta-glucoside at 0.1 % fwt, po measured after 3 days by 1H/13C NMR analysis. To be noted: in vivo, 72 h. It counts as ADME, organism-based.
The nature of series [6]: Drug excretion in 80 last instar Spodoptera litura larvae feces assessed as unchanged parent compound at 0.1 % fwt, po measured after 3 days by 1H/13C analysis. To be noted: in vivo, 72 h. The class given is ADME, organism-based.
The nature of series [7]: Drug excretion in 30 last instar Trichoplusia ni (cabbage looper) larvae feces assessed as thymol 3-O-beta-glucoside at 100 ug administered topically on abdominal terga by TLC analysis. The class given is ADME. To be noted: in vivo, topical_or_ocular.
Series [8] is described as follows: Drug excretion in 80 last instar Spodoptera litura larvae feces assessed as thymol 3-O-beta-glucoside at 0.1 % fwt, po measured after 3 days by TLC analysis. The class given is ADME, organism-based. To be noted: in vivo, 72 h.
The nature of series [9]: Drug excretion in 80 last instar Spodoptera litura larvae feces assessed as thymol 3-O-beta-glucoside at 0.1 % fwt, po measured after 3 days by 1H/13C NMR analysis. It counts as ADME, organism-based. As to conditions: in vivo, 72 h.
A short description of series [10]: Drug excretion in 80 last instar Trichoplusia ni (cabbage looper) larvae feces assessed as thymol 3-O-beta-glucoside at 0.1 % fwt, po measured after 3 days by TLC analysis. As to conditions: in vivo, 72 h. The class given is ADME, organism-based.

`C/C=C/c1ccc(OC)cc1` [ANETHOLE]: the Drug excretion is recorded as 5.8 mg in series [1], 5.8 mg in series [2], “Active” in series [3] and “Not Active” in series [4].

Regarding `Cc1ccc(C(C)C)c(O)c1` [THYMOL], the Drug excretion result in series [5] is listed as “Active”; in series [6], “Active”; in series [7], “Active”; in series [8], 3.2 mg; in [9] it was “Active”; in series [4] it was “Active”. Further, the Drug excretion in series [10] is recorded as 3.2 mg.
